Where “and” joins values, the source holds several entries; their conditions need not be identical. Equal entries are not always repeated. Toxic doses and inconclusive results are not listed.
System: L1210 leukemia ip in BDF1 mice, survival T/C
Assay: NCI In Vivo Anticancer Drug Screen. Data for tumor model L1210 Leukemia (intraperitoneal) in B6D2F1 (BDF1) mice
Conditions: endpoint: mean survival time, higher = longer survival
In short: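 In this screen, tumor-bearing mice given compound are compared to those given vehicle, and their survival values are reported as a treated-to-control quotient.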

CCN(CC)CCNc1ccc(C)c2sc3ccccc3c(=O)c12
T/C (dose: 6.25 mg/kg/injection, schedule: Q01DX009 (ip), vehicle: saline): 117 % of control and 118 % of control
T/C (dose: 8.08 mg/kg/injection, schedule: Q01DX Z (ip), vehicle: carboxymethylcellulose (CMC)): 96 % of control
T/C (dose: 10.0 mg/kg/injection, schedule: Q01DX Z (ip), vehicle: other): 95 % of control
T/C (dose: 12.0 mg/kg/injection, schedule: Q01DX006 (iv), vehicle: saline): 98 % of control
T/C (dose: 12.0 mg/kg/injection, schedule: Q01DX Z (im), vehicle: saline): 98 % of control
T/C (dose: 12.0 mg/kg/injection, schedule: Q01DX Z (ip), vehicle: saline): 101 % of control
T/C (dose: 12.0 mg/kg/injection, schedule: Q01DX Z (sc), vehicle: saline): 98 % of control
T/C (dose: 12.5 mg/kg/injection, schedule: Q01DX005 (ip), vehicle: Klucel (hydroxypropylcellulose) (HPC)): 96 % of control and 97 % of control
T/C (dose: 12.5 mg/kg/injection, schedule: Q01DX005 (ip), vehicle: water): 101 % of control
T/C (dose: 13.0 mg/kg/injection, schedule: Q01DX Z (oral), vehicle: carboxymethylcellulose (CMC)): 122 % of control
T/C (dose: 16.17 mg/kg/injection, schedule: Q01DX Z (ip), vehicle: carboxymethylcellulose (CMC)): 104 % of control
T/C (dose: 18.0 mg/kg/injection, schedule: Q01DX Z (ip), vehicle: carboxymethylcellulose (CMC)): 98 % of control
T/C (dose: 18.0 mg/kg/injection, schedule: Q01DX Z (ip), vehicle: methylcellulose (MC)): 107 % of control
T/C (dose: 20.0 mg/kg/injection, schedule: Q01DX Z (ip), vehicle: carboxymethylcellulose (CMC)): 100 % of control and 109 % of control
T/C (dose: 20.0 mg/kg/injection, schedule: Q01DX Z (oral), vehicle: carboxymethylcellulose (CMC)): 112 % of control
T/C (dose: 24.0 mg/kg/injection, schedule: Q01DX Z (im), vehicle: saline): 103 % of control
T/C (dose: 24.0 mg/kg/injection, schedule: Q01DX Z (ip), vehicle: saline): 101 % of control
T/C (dose: 24.0 mg/kg/injection, schedule: Q01DX Z (sc), vehicle: saline): 98 % of control
T/C (dose: 25.0 mg/kg/injection, schedule: Q01DX005 (ip), vehicle: Klucel (hydroxypropylcellulose) (HPC)): 103 % of control and 105 % of control
T/C (dose: 25.0 mg/kg/injection, schedule: Q01DX005 (ip), vehicle: water): 112 % of control
T/C (dose: 25.0 mg/kg/injection, schedule: Q01DX010 (ip), vehicle: saline): 103 % of control and 113 % of control
T/C (dose: 25.0 mg/kg/injection, schedule: Q01DX Z (ip), vehicle: carboxymethylcellulose (CMC)): 109 % of control
T/C (dose: 25.0 mg/kg/injection, schedule: Q04DX003 (ip), vehicle: Klucel (hydroxypropylcellulose) (HPC)): 104 % of control and 110 % of control
T/C (dose: 25.0 mg/kg/injection, schedule: Q04DX003 (ip), vehicle: saline): 100 % of control
T/C (dose: 25.0 mg/kg/injection, schedule: Q04DX003 (ip), vehicle: water): 101 % of control
T/C (dose: 25.88 mg/kg/injection, schedule: Q01DX Z (ip), vehicle: carboxymethylcellulose (CMC)): 98 % of control
T/C (dose: 27.0 mg/kg/injection, schedule: Q01DX Z (ip), vehicle: carboxymethylcellulose (CMC)): 108 % of control
T/C (dose: 27.0 mg/kg/injection, schedule: Q01DX Z (ip), vehicle: methylcellulose (MC)): 105 % of control
T/C (dose: 30.0 mg/kg/injection, schedule: Q01DX Z (ip), vehicle: other): 103 % of control
T/C (dose: 32.35 mg/kg/injection, schedule: Q01DX Z (ip), vehicle: carboxymethylcellulose (CMC)): 102 % of control and 103 % of control
T/C (dose: 39.0 mg/kg/injection, schedule: Q01DX Z (ip), vehicle: methylcellulose (MC)): 164 % of control
T/C (dose: 40.0 mg/kg/injection, schedule: Q01DX Z (ip), vehicle: carboxymethylcellulose (CMC)): 114 % of control and 122 % of control and 123 % of control
T/C (dose: 40.0 mg/kg/injection, schedule: Q01DX Z (ip), vehicle: methylcellulose (MC)): 100 % of control
T/C (dose: 43.13 mg/kg/injection, schedule: Q01DX Z (ip), vehicle: carboxymethylcellulose (CMC)): 113 % of control
T/C (dose: 48.0 mg/kg/injection, schedule: Q01DX Z (im), vehicle: saline): 108 % of control
T/C (dose: 48.0 mg/kg/injection, schedule: Q01DX Z (sc), vehicle: saline): 101 % of control
T/C (dose: 50.0 mg/kg/injection, schedule: Q01DX005 (ip), vehicle: Klucel (hydroxypropylcellulose) (HPC)): 114 % of control
T/C (dose: 50.0 mg/kg/injection, schedule: Q01DX005 (ip), vehicle: water): 121 % of control
T/C (dose: 50.0 mg/kg/injection, schedule: Q01DX Z (ip), vehicle: carboxymethylcellulose (CMC)): 121 % of control
T/C (dose: 50.0 mg/kg/injection, schedule: Q04DX003 (ip), vehicle: Klucel (hydroxypropylcellulose) (HPC)): 102 % of control and 119 % of control
T/C (dose: 50.0 mg/kg/injection, schedule: Q04DX003 (ip), vehicle: saline): 102 % of control
T/C (dose: 50.0 mg/kg/injection, schedule: Q04DX003 (ip), vehicle: water): 106 % of control
T/C (dose: 58.0 mg/kg/injection, schedule: Q01DX Z (ip), vehicle: methylcellulose (MC)): 222 % of control
T/C (dose: 60.0 mg/kg/injection, schedule: Q01DX Z (ip), vehicle: methylcellulose (MC)): 104 % of control
T/C (dose: 75.0 mg/kg/injection, schedule: Q01DX001 (ip), vehicle: Klucel (hydroxypropylcellulose) (HPC)): 117 % of control
T/C (dose: 75.0 mg/kg/injection, schedule: Q01DX001 (ip), vehicle: saline): 96 % of control and 101 % of control
T/C (dose: 75.0 mg/kg/injection, schedule: Q01DX001 (ip), vehicle: water): 108 % of control
T/C (dose: 90.0 mg/kg/injection, schedule: Q01DX Z (ip), vehicle: methylcellulose (MC)): 100 % of control
T/C (dose: 96.0 mg/kg/injection, schedule: Q01DX Z (im), vehicle: carboxymethylcellulose (CMC)): 111 % of control
T/C (dose: 96.0 mg/kg/injection, schedule: Q01DX Z (im), vehicle: saline): 120 % of control
T/C (dose: 96.0 mg/kg/injection, schedule: Q01DX Z (ip), vehicle: carboxymethylcellulose (CMC)): 111 % of control
T/C (dose: 96.0 mg/kg/injection, schedule: Q01DX Z (ip), vehicle: saline): 165 % of control
T/C (dose: 96.0 mg/kg/injection, schedule: Q01DX Z (sc), vehicle: saline): 115 % of control
T/C (dose: 100.0 mg/kg/injection, schedule: Q01DX001 (ip), vehicle: saline): 104 % of control
T/C (dose: 100.0 mg/kg/injection, schedule: Q01DX005 (ip), vehicle: water): 157 % of control
T/C (dose: 100.0 mg/kg/injection, schedule: Q01DX010 (ip), vehicle: saline): 151 % of control and 166 % of control
T/C (dose: 100.0 mg/kg/injection, schedule: Q04DX003 (ip), vehicle: saline): 93 % of control and 116 % of control
T/C (dose: 129.4 mg/kg/injection, schedule: Q01DX Z (ip), vehicle: carboxymethylcellulose (CMC)): 87 % of control
T/C (dose: 140.0 mg/kg/injection, schedule: Q01DX Z (sc), vehicle: carboxymethylcellulose (CMC)): 122 % of control
T/C (dose: 145.0 mg/kg/injection, schedule: Q01DX001 (ip), vehicle: water): 116 % of control
T/C (dose: 150.0 mg/kg/injection, schedule: Q01DX001 (ip), vehicle: Klucel (hydroxypropylcellulose) (HPC)): 107 % of control
T/C (dose: 150.0 mg/kg/injection, schedule: Q01DX001 (ip), vehicle: saline): 94 % of control and 104 % of control
T/C (dose: 150.0 mg/kg/injection, schedule: Q01DX001 (ip), vehicle: water): 120 % of control
T/C (dose: 200.0 mg/kg/injection, schedule: Q01DX001 (ip), vehicle: saline): 110 % of control
T/C (dose: 200.0 mg/kg/injection, schedule: Q01DX009 (ip), vehicle: saline): 105 % of control and 110 % of control
T/C (dose: 200.0 mg/kg/injection, schedule: Q01DX010 (ip), vehicle: saline): 93 % of control and 103 % of control
T/C (dose: 200.0 mg/kg/injection, schedule: Q01DX Z (oral), vehicle: saline): 104 % of control
T/C (dose: 200.0 mg/kg/injection, schedule: Q04DX003 (ip), vehicle: Klucel (hydroxypropylcellulose) (HPC)): 176 % of control and 180 % of control
T/C (dose: 200.0 mg/kg/injection, schedule: Q04DX003 (ip), vehicle: saline): 117 % of control
T/C (dose: 215.0 mg/kg/injection, schedule: Q01DX Z (im), vehicle: carboxymethylcellulose (CMC)): 122 % of control
T/C (dose: 215.0 mg/kg/injection, schedule: Q01DX Z (sc), vehicle: carboxymethylcellulose (CMC)): 111 % of control
T/C (dose: 217.0 mg/kg/injection, schedule: Q01DX001 (ip), vehicle: water): 121 % of control
T/C (dose: 300.0 mg/kg/injection, schedule: Q01DX001 (ip), vehicle: saline): 105 % of control
T/C (dose: 300.0 mg/kg/injection, schedule: Q01DX001 (ip), vehicle: water): 121 % of control
T/C (dose: 320.0 mg/kg/injection, schedule: Q01DX Z (im), vehicle: carboxymethylcellulose (CMC)): 100 % of control and 114 % of control
T/C (dose: 320.0 mg/kg/injection, schedule: Q01DX Z (sc), vehicle: carboxymethylcellulose (CMC)): 102 % of control
T/C (dose: 400.0 mg/kg/injection, schedule: Q01DX001 (ip), vehicle: saline): 188 % of control
T/C (dose: 480.0 mg/kg/injection, schedule: Q01DX Z (im), vehicle: carboxymethylcellulose (CMC)): 90 % of control

Reference: PubChem BioAssay AID248 (DTP/NCI, 2004)
